These are literature values, as cited in patent US20080095865A1, “COMPOSITION AND METHOD FOR INCREASING LEAN MUSCLE MASS, DECREASING MUSCLE LOSS, INCREASING MUSCLE STRENGTH AND IMPROVING ATHLETIC PERFORMANCE” (APLODAN FORMULATIONS LTD., priority 2004, published 2008).

The conditions of data set [1]: hamster, in vivo.
The conditions of data set [2]: supplemented rats.
For data set [3] the following is noted: patients with inadequate coronary blood flow.
The conditions of data set [4]: elderly subjects, compared to controls.
The conditions of data set [5]: unaffected in placebo group.
The conditions of data set [6]: as a supplement.

As to `O=C(O)CCCC[C@@H]1CCSS1` (stereo in doubt) [Alpha Lipoic Acid, 1,2-dithiolane-3-pentanoic acid], in data set [1], the high-density lipoproteins result was “beneficial increase in high-density lipoproteins”. In addition, the “increase of metabolic clearance rate of glucose” value (diabetics) was 50%. For the same compound, where the note is “type II diabetics”, the “body's utilization of blood sugar” value is “significantly increase”. Also, the “age-related changes in mitochondrial function, accumulated oxidative damage and metabolic rate” value in data set [2] is given as “improved”.
With `CN(CCOP(=O)(O)O)C(=N)N` [Creatinol O-Phosphate], the cardiac parameters result in data set [3] is recorded as “successfully used to improve cardiac parameters”. Also, the muscular performance result in data set [4] is “improved muscular performance as compared to controls”. In addition, the hand-grip strength result in data set [5] is listed as “improved”. The “tolerance and side effects” value in data set [6] is “well tolerated and without side effects”.
